Laboratory results reported in US20240285634A1, “COMPOUND AND METHOD FOR TREATING CHEMOTHERAPY-ASSOCIATED GASTROINTESTINAL SIDE EFFECTS” (ONQUALITY PHARMACEUTICALS CHINA LTD., priority 2021, published 2024).

Legend:
[1] = system: Balb/c mice, constipation caused by continuous administration of a chemotherapeutic agent; experiment: Relieving effect on constipation caused by the continuous administration of a chemotherapeutic agent (Examples 385-405); assay type: in vivo
From the text: Balb/c mice were fed for 1 week, and then divided into groups. The experiment was divided into a control group, a chemotherapeutic agent group, and a group of the compound as shown in Formula I, each of which comprised 10 mice, to perform the administration experiment, for which the administration dosage, mode, time and frequency were shown in Table 6. The control group: being injected or intragastrically administered with the same solvent as that used in the group of the compound as shown in Formula I (the administration mode and time were shown in Table 6), and then being injected or intragastrically administered with the same solvent as that used in the group of the compound as shown in Formula I (the administration mode was shown in Table 6); the chemotherapeutic agent group: being injected or intragastrically administered with the same solvent as that used in the group of the compound as shown in Formula I (the administration mode and time were shown in Table 6), and then being injected or intragastrically administered with the chemotherapeutic agent (the type, administration mode, time and dosage were shown in Table 6); the group of the compound as shown in Formula I: being injected or intragastrically administered with the compound as shown in Formula I (the administration mode and time were shown in Table 6), and then being administered with the chemotherapeutic agent (the type, administration mode, time and dosage were shown in Table 6).
(§1) The feces reduction rate was calculated with reference to the method of Ji Eun Kim (Lab Anim Res. 2016 December; 32(4): 231-240.). Feces reduction rate (%)=(the control group−the chemotherapeutic agent group or the group of the compound as shown in Formula I)/the control group*100%
(§2) It is regarded as effective remission when the feces reduction rate of mice in the group of the compound as shown in Formula I is reduced compared with that in the chemotherapeutic agent group.
(§3) The feces amount of mice within 3 hours was observed and recorded every day. At the end of the experiment, the number of mice in the group of the compound as shown in Formula I whose feces reduction rate was lower than that of mice in the chemotherapeutic agent group was recorded. Table 6 lists various animal experiment combinations of chemotherapeutic agents and the compound as shown in Formula I, as well as the corresponding experimental results.

[2] = system: Chemotherapeutic agent-caused constipation models of Balb/c mice; experiment: Relieving effect on constipation caused by a chemotherapeutic agent (Examples 202-364); assay type: in vivo; conditions: Fluorouracil (5-Fu) intraperitoneal injection 175 mg/kg single, compound intravenous injection 100 mg/kg, cycle 10 days
From the text: Construction of mouse animal models: Chemotherapeutic agent-caused constipation models of Balb/c mice were constructed according to the administration mode and frequency of the chemotherapeutic agent as shown in Table 4. […] Thus, chemotherapeutic agent-caused constipation models of mice are very good models to mimic constipation caused by the chemotherapeutic agent.
Balb/c mice were fed for 1 week, and then divided into groups. The experiment was divided into a control group, a chemotherapeutic agent group, and a group of the compound as shown in Formula I, each of which comprised 10 mice, to perform the administration experiment, for which the administration dosage, mode, time and frequency were shown in Table 4. The control group: being injected or intragastrically administered with the same solvent as that used in the group of the compound as shown in Formula I (the administration mode and time were shown in Table 4), and then being injected or intragastrically administered with the same solvent as that used in the chemotherapeutic agent group (the administration mode was shown in Table 4); the chemotherapeutic agent group: being injected or intragastrically administered with the same solvent as that used in the group of the compound as shown in Formula I (the administration mode and time was shown in Table 4), and then being injected or intragastrically administered with the chemotherapeutic agent (the type, administration mode and dosage were shown in Table 4); the group of the compound as shown in Formula I: being injected or intragastrically administered with the compound as shown in Formula I (the administration mode and time was shown in Table 4), and then being administered with the chemotherapeutic agent (the administration mode and dosage were shown in Table 4).
as §1, §2
as §3, with “4” for “6”

CN1CCN(c2ccc(Nc3ncc4cc5n(c4n3)C3(CCCCC3)CNC5=O)nc2)CC1 [Compound I, Trilaciclib]
Relative remission rate (%) ([1]; Example 385, Fluorouracil (5-Fu) 100 mg/kg intraperitoneal injection once a day for 3 days, compound 100 mg/kg intravenous injection once a day for 3 days, 0.5 h before the chemotherapeutic agent, experimental cycle 7 days): 70% | Relative remission rate (%) ([1]; Example 386, Fluorouracil (5-Fu) 100 mg/kg intraperitoneal injection once a day for 3 days, compound 100 mg/kg intravenous injection once a day for 3 days, 4 h before the chemotherapeutic agent, experimental cycle 7 days): 50% | Relative remission rate (%) ([1]; Example 387, Fluorouracil (5-Fu) 100 mg/kg intraperitoneal injection once a day for 3 days, compound 100 mg/kg intravenous injection once a day for 3 days, 6 h before the chemotherapeutic agent, experimental cycle 7 days): 40% | Relative remission rate (%) ([1]; Example 388, Fluorouracil (5-Fu) 100 mg/kg intraperitoneal injection once a day for 3 days, compound 100 mg/kg intravenous injection once a day for 3 days, 8 h before the chemotherapeutic agent, experimental cycle 7 days): 30% | Relative remission rate (%) ([1]; Example 389, Fluorouracil (5-Fu) 100 mg/kg intraperitoneal injection once a day for 5 days, compound 100 mg/kg intraperitoneal injection once a day for 5 days, 0.5 h before the chemotherapeutic agent, experimental cycle 9 days): 60% | Relative remission rate (%) ([1]; Example 390, Fluorouracil (5-Fu) 100 mg/kg intraperitoneal injection once a day for 5 days, compound 100 mg/kg intraperitoneal injection once a day for 5 days, 12 h before the chemotherapeutic agent, experimental cycle 9 days): 30% | Relative remission rate (%) ([1]; Example 391, Fluorouracil (5-Fu) 100 mg/kg intraperitoneal injection once a day for 5 days, compound 100 mg/kg intraperitoneal injection once a day for 5 days, 20 h before the chemotherapeutic agent, experimental cycle 9 days): 10% | Relative remission rate (%) ([1]; Example 392, Fluorouracil (5-Fu) 100 mg/kg intraperitoneal injection once a day for 5 days, compound 100 mg/kg intraperitoneal injection once a day for 5 days, 24 h before the chemotherapeutic agent, experimental cycle 9 days): 10% | Relative remission rate (%) ([1]; Example 396, Fluorouracil (5-Fu) 100 mg/kg intravenous injection once a day for 3 days, compound 100 mg/kg oral administration once a day for 3 days, 4 h before the chemotherapeutic agent, experimental cycle 7 days): 40% | Relative remission rate (%) ([1]; Example 402, Fluorouracil (5-Fu) 100 mg/kg intraperitoneal injection once a day for 7 days, compound 125 mg/kg intraperitoneal injection once a day for 7 days, 2 h before the chemotherapeutic agent, experimental cycle 10 days): 10% | Relative remission rate (%) ([1]; Example 403, Fluorouracil (5-Fu) 100 mg/kg intraperitoneal injection once a day for 7 days, compound 125 mg/kg intraperitoneal injection once a day for 7 days, 4 h before the chemotherapeutic agent, experimental cycle 10 days): 10% | Relative remission rate (%) ([1]; Example 404, Fluorouracil (5-Fu) 100 mg/kg intraperitoneal injection once a day for 7 days, compound 125 mg/kg intraperitoneal injection once a day for 7 days, 6 h before the chemotherapeutic agent, experimental cycle 10 days): 10% | Relative remission rate (%) ([1]; Example 405, Fluorouracil (5-Fu) 100 mg/kg intraperitoneal injection once a day for 7 days, compound 125 mg/kg intraperitoneal injection once a day for 7 days, 8 h before the chemotherapeutic agent, experimental cycle 10 days): 0% | relieving effects on constipation ([1]; continuous administration of fluorouracil for less than 7 days): significant relieving effects | relieving effects on constipation ([1]; continuous administration of the chemotherapeutic agent for 7 days or less): have relieving effects | Relative remission rate (%) ([2]; Example 202, frequency 8, 0.5 h before chemotherapeutic agent): 40% | Relative remission rate (%) ([2]; Example 203, frequency 8, 1 h before chemotherapeutic agent): 30% | Relative remission rate (%) ([2]; Example 204, frequency 8, 2 h before chemotherapeutic agent): 40% | Relative remission rate (%) ([2]; Example 205, frequency 8, 3 h before chemotherapeutic agent): 40% | Relative remission rate (%) ([2]; Example 206, frequency 8, 4 h before chemotherapeutic agent): 30% | Relative remission rate (%) ([2]; Example 207, frequency 8, 5 h before chemotherapeutic agent): 20% | Relative remission rate (%) ([2]; Example 208, frequency 8, 6 h before chemotherapeutic agent): 50% | Relative remission rate (%) ([2]; Example 209, frequency 8, 7 h before chemotherapeutic agent): 50% | Relative remission rate (%) ([2]; Example 210, frequency 8, 8 h before chemotherapeutic agent): 40% | Relative remission rate (%) ([2]; Example 211, frequency 8, 9 h before chemotherapeutic agent): 40% | Relative remission rate (%) ([2]; Example 212, frequency 8, 10 h before chemotherapeutic agent): 30% | Relative remission rate (%) ([2]; Example 213, frequency 8, 11 h before chemotherapeutic agent): 50%
